Tests used:
[1] = molecular target: T1, human phosphodiesterase 5 (PDE-5) (Homo sapiens, UniProt O76074); assay: Inhibition of human phosphodiesterase 5 (PDE-5), SPA assay; type: biochemical; details: PDE-5 preparation from human platelets, [8-3H]cGMP substrate
T1 construct: PDE-5 preparations are obtained from human platelets by lysis; from tissue; host or cells: human platelets
Method: B-6. Inhibition of Human Phosphodiesterase 5 (PDE-5)
PDE-5 preparations are obtained from human platelets by lysis (Microfluidizer®, 800 bar, 3 passages), followed by centrifugation (75000 g, 60 min, 4° C.) and ion-exchange chromatography of the supernatant on a Mono Q 10/10 column (linear sodium chloride gradient, elution with a 0.2-0.3M solution of sodium chloride in buffer (20 mM Hepes pH 7.2, 2 mM magnesium chloride). Fractions that have PDE-5 activity are combined (PDE-5 preparation) and stored at −80° C.
For determining their in-vitro action on human PDE-5, the test substances are dissolved in 100% DMSO and serial dilutions are prepared. Typically, dilution series (1:3) from 200 μM to 0.091 μM are prepared (resultant final concentrations in the test: 4 μM to 0.0018 μM). In each case 2 μL of the diluted solutions of the substance are put in the wells of microtitre plates (Isoplate-96/200W; Perkin-Elmer). Then 50 μL of a dilution of the PDE-5 preparation described above is added. The dilution of the PDE-5 preparation is selected so that during subsequent incubation less than 70% of the substrate is reacted (typical dilution: 1:100; dilution buffer: 50 mM Tris/hydrochloric acid pH 7.5, 8.3 mM magnesium chloride, 1.7 mM EDTA, 0.2% BSA). The substrate [8-^3H]cyclic guanosine-3′,5′-monophosphate (1 μCi/μL; Perkin-Elmer) is diluted 1:2000 with assay buffer (50 mM Tris/hydrochloric acid pH 7.5, 8.3 mM magnesium chloride, 1.7 mM EDTA) to a concentration of 0.0005 μCi/μL. The enzyme reaction is finally started by adding 50 μL (0.025 μCi) of the diluted substrate. The test preparations are incubated for 60 min at room temperature and the reaction is stopped by adding 25 μL of a suspension of 18 mg/mL of Yttrium Scintillation Proximity Beads in water (phosphodiesterase beads for SPA assays, RPNQ 0150, Perkin-Elmer). The microtitre plates are sealed with film and left to stand for 60 min at room temperature. Then the plates are measured for 30 s per well in a Microbeta scintillation counter (Perkin-Elmer). IC50 values are determined on the basis of the graphs plotted of the substance concentration versus the percentage PDE-5 inhibition.

[2] = molecular target: T2, recombinant guanylate cyclase reporter cell line (Rattus norvegicus, UniProt P19686+P20595); assay: Action on recombinant guanylate cyclase reporter cell line; type: cell-based
T2 construct: expressed in transfected cells
T2 sequence (P20595 1-619): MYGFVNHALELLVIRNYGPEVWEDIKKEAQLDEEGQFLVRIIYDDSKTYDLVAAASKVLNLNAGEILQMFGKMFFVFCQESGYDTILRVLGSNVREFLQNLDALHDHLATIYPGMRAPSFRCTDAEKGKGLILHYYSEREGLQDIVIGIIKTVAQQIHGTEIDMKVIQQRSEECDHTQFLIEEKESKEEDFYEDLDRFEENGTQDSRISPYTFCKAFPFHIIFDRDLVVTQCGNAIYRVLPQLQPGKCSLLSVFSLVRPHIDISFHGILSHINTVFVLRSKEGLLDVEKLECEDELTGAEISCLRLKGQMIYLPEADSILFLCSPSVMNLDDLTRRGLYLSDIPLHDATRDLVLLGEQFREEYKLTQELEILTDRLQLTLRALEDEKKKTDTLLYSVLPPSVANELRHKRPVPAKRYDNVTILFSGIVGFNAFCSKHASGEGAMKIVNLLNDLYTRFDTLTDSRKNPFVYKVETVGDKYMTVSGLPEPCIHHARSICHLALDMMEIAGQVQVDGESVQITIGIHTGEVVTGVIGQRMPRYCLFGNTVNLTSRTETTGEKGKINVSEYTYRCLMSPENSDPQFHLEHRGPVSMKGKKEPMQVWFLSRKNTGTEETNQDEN
T2 sequence (P19686 1-690): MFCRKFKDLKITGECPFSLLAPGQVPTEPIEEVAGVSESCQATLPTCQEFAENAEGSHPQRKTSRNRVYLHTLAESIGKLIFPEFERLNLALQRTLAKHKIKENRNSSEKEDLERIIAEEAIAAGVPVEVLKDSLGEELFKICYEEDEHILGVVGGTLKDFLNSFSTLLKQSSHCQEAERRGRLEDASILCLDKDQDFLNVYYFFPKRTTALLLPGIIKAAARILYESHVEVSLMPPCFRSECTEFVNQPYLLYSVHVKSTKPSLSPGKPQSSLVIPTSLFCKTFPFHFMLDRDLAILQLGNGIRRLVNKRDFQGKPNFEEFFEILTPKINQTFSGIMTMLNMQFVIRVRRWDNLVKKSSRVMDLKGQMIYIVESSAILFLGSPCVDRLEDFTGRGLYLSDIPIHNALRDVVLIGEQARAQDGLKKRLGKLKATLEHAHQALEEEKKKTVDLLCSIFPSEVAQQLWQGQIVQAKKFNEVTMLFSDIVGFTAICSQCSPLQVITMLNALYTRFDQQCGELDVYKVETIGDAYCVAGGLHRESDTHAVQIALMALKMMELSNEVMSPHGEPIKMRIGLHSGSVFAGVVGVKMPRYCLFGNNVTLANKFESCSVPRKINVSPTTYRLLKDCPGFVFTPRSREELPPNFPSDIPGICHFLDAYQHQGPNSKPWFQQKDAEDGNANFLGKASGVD
Method: B-2. Action on Recombinant Guanylate Cyclase Reporter Cell Line
The cellular action of the compounds according to the invention is determined on a recombinant guanylate cyclase reporter cell line, as described in F. Wunder et al., Anal. Biochem. 339, 104-112 (2005).

Row | Compound | IC50 [1] | MEC (minimal effective concentration) [2]
1 | CC1(C)C(=O)Nc2nc(-c3nn(Cc4ccccc4F)c4ncccc34)nc(N3CCCC3)c21 [Example 64, 2-[1-(2-fluorobenzyl)-1H-pyrazolo[3,4-b]pyridin-3-yl]-5,5-dimethyl-4-(pyrrolidin-1-yl)-5,7-dihydro-6H-pyrrolo[2,3-d]pyrimidin-6-one] | 980 nM | 0.1 μm
2 | CC1(C)C(=O)Nc2nc(-c3nn(Cc4ccccc4F)c4ncccc34)nc(NCc3cccnc3)c21 [Example 84, 2-[1-(2-fluorobenzyl)-1H-pyrazolo[3,4-b]pyridin-3-yl]-5,5-dimethyl-4-[(pyridin-3-ylmethyl)amino]-5,7-dihydro-6H-pyrrolo[2,3-d]pyrimidin-6-one] | 19 nM | 0.1 μm
3 | CC1(C)C(=O)Nc2nc(-c3nn(Cc4ccccc4F)c4ncccc34)nc(NCCn3cccn3)c21 [Example 58, 2-[1-(2-fluorobenzyl)-1H-pyrazolo[3,4-b]pyridin-3-yl]-5,5-dimethyl-4-{[2-(1H-pyrazol-1-yl)ethyl]amino}-5,7-dihydro-6H-pyrrolo[2,3-d]pyrimidin-6-one] | 270 nM | 0.03 μm
4 | CC1(C)C(=O)Nc2nc(-c3nn(Cc4ccccc4F)c4ncccc34)nc(NCc3cccc(F)c3)c21 [Example 78, 4-[(3-fluorobenzyl)amino]-2-[1-(2-fluorobenzyl)-1H-pyrazolo[3,4-b]pyridin-3-yl]-5,5-dimethyl-5,7-dihydro-6H-pyrrolo[2,3-d]pyrimidin-6-one] | 330 nM | 0.03 μm
5 | CC1(C)C(=O)Nc2nc(-c3nn(Cc4ccccc4F)c4ncccc34)nc(NCc3ccncc3)c21 [Example 85, 2-[1-(2-fluorobenzyl)-1H-pyrazolo[3,4-b]pyridin-3-yl]-5,5-dimethyl-4-[(pyridin-4-ylmethyl)amino]-5,7-dihydro-6H-pyrrolo[2,3-d]pyrimidin-6-one] | 4.2 nM | 0.3 μm
6 | CC(=O)NCCNc1nc(-c2nn(Cc3ccccc3F)c3ncccc23)nc2c1C(C)(C)C(=O)N2 [Example 44, N-[2-({2-[1-(2-fluorobenzyl)-1H-pyrazolo[3,4-b]pyridin-3-yl]-5,5-dimethyl-6-oxo-6,7-dihydro-5H-pyrrolo[2,3-d]pyrimidin-4-yl}amino)ethyl]acetamide] | 86 nM | 0.1 μm
7 | CC1(C)C(=O)Nc2nc(-c3nn(Cc4ccccc4F)c4ncccc34)nc(N[C@@H]3CCCNC3=O)c21 [Example 81, 2-[1-(2-fluorobenzyl)-1H-pyrazolo[3,4-b]pyridin-3-yl]-5,5-dimethyl-4-[(2-oxopiperidin-3-yl)amino]-5,7-dihydro-6H-pyrrolo[2,3-d]pyrimidin-6-one] | 290 nM | 0.03 μm
8 | CC1(C)C(=O)Nc2nc(-c3nn(Cc4ccccc4F)c4ncccc34)nc(N3CCC(F)(F)C3)c21 [Example 76, 4-(3,3-difluoropyrrolidin-1-yl)-2-[1-(2-fluorobenzyl)-1H-pyrazolo[3,4-b]pyridin-3-yl]-5,5-dimethyl-5,7-dihydro-6H-pyrrolo[2,3-d]pyrimidin-6-one] | 130 nM | 0.03 μm
9 | Cn1nccc1CNc1nc(-c2nn(Cc3ccccc3F)c3ncccc23)nc2c1C(C)(C)C(=O)N2 [Example 40, 2-[1-(2-Fluorobenzyl)-1H-pyrazolo[3,4-b]pyridin-3-yl]-5,5-dimethyl-4-{[(1-methyl-1H-pyrazol-5-yl)methyl]amino}-5,7-dihydro-6H-pyrrolo[2,3-d]pyrimidin-6-one] | 11 nM | 0.1 μm
10 | CC1(C)C(=O)Nc2nc(-c3nn(Cc4cccc(F)c4F)c4ncc(F)cc34)nc(O)c21 [Example 116, 2-[1-(2,3-Difluorobenzyl)-5-fluoro-1H-pyrazolo[3,4-b]pyridin-3-yl]-4-hydroxy-5,5-dimethyl-5,7-dihydro-6H-pyrrolo[2,3-d]pyrimidin-6-one] | 83 nM | 0.03 μm
11 | CC1(C)C(=O)Nc2nc(-c3nn(Cc4ccccc4F)c4ncccc34)nc(N3CCC(O)CC3)c21 [Example 52, 2-[1-(2-fluorobenzyl)-1H-pyrazolo[3,4-b]pyridin-3-yl]-4-(4-hydroxypiperidin-1-yl)-5,5-dimethyl-5,7-dihydro-6H-pyrrolo[2,3-d]pyrimidin-6-one] | 34 nM | 0.01 μm
12 | CCOCCCNc1nc(-c2nn(Cc3ccccc3F)c3ncccc23)nc2c1C(C)(C)C(=O)N2 [Example 71, 4-[(3-ethoxypropyl)amino]-2-[1-(2-fluorobenzyl)-1H-pyrazolo[3,4-b]pyridin-3-yl]-5,5-dimethyl-5,7-dihydro-6H-pyrrolo[2,3-d]pyrimidin-6-one] | 42 nM | 0.01 μm
13 | CC1(C)C(=O)Nc2nc(-c3nn(Cc4ccccc4F)c4ncccc34)nc(NCc3ccccn3)c21 [Example 55, 2-[1-(2-fluorobenzyl)-1H-pyrazolo[3,4-b]pyridin-3-yl]-5,5-dimethyl-4-[(pyridin-2-ylmethyl)amino]-5,7-dihydro-6H-pyrrolo[2,3-d]pyrimidin-6-one] | 130 nM | 0.03 μm
14 | Cn1cc(CNc2nc(-c3nn(Cc4ccccc4F)c4ncccc34)nc3c2C(C)(C)C(=O)N3)cn1 [Example 59, 2-[1-(2-fluorobenzyl)-1H-pyrazolo[3,4-b]pyridin-3-yl]-5,5-dimethyl-4-{[(1-methyl-1H-pyrazol-4-yl)methyl]amino}-5,7-dihydro-6H-pyrrolo[2,3-d]pyrimidin-6-one] | 8 nM | 0.1 μm
15 | COCCN(C)c1nc(-c2nn(Cc3ccccc3F)c3ncccc23)nc2c1C(C)(C)C(=O)N2 [Example 75, 2-[1-(2-fluorobenzyl)-1H-pyrazolo[3,4-b]pyridin-3-yl]-4-[(2-methoxyethyl)(methyl)amino]-5,5-dimethyl-5,7-dihydro-6H-pyrrolo[2,3-d]pyrimidin-6-one] | 210 nM | 0.03 μm
16 | CC1(C)C(=O)Nc2nc(-c3nn(Cc4ccccc4F)c4ncccc34)nc(Nc3ccccc3)c21 [Example 87, 2-[1-(2-fluorobenzyl)-1H-pyrazolo[3,4-b]pyridin-3-yl]-5,5-dimethyl-4-(phenylamino)-5,7-dihydro-6H-pyrrolo[2,3-d]pyrimidin-6-one] | 210 nM | 0.03 μm

From patent US8859569B2, “Substituted annellated pyrimidines and use thereof” (Bayer Pharma Aktiengesellschaft, priority 2011, dated 2014)
